The results in this text go back to patent publication US20250346600A1, “TRICYCLIC DERIVATIVES AND RELATED USES” (MOMA Therapeutics, Inc., priority 2023, published 2025).

Usually AC50 stands for the midpoint of the concentration-response curve, whichever way the signal moves.

For test [1], the target named is Full length WRN protein (aa 2-1432) (Homo sapiens (Human), UniProt Q14191). Nature of the test: WRN ATPase ADP-Glo biochemical assay, Assay Format B (100 μM ATP). The following applies: 0.25 nM WRN, 100 nM C6.18 ssDNA, 60 min preincubation, read-out: ATPase ADPGlo AC50 (uM)- Assay Format B. (ADP-Glo turns the ADP formed in a reaction into a luminescent signal.)
Sequence of Full length WRN protein (aa 2-1432) (Q14191 2-1432): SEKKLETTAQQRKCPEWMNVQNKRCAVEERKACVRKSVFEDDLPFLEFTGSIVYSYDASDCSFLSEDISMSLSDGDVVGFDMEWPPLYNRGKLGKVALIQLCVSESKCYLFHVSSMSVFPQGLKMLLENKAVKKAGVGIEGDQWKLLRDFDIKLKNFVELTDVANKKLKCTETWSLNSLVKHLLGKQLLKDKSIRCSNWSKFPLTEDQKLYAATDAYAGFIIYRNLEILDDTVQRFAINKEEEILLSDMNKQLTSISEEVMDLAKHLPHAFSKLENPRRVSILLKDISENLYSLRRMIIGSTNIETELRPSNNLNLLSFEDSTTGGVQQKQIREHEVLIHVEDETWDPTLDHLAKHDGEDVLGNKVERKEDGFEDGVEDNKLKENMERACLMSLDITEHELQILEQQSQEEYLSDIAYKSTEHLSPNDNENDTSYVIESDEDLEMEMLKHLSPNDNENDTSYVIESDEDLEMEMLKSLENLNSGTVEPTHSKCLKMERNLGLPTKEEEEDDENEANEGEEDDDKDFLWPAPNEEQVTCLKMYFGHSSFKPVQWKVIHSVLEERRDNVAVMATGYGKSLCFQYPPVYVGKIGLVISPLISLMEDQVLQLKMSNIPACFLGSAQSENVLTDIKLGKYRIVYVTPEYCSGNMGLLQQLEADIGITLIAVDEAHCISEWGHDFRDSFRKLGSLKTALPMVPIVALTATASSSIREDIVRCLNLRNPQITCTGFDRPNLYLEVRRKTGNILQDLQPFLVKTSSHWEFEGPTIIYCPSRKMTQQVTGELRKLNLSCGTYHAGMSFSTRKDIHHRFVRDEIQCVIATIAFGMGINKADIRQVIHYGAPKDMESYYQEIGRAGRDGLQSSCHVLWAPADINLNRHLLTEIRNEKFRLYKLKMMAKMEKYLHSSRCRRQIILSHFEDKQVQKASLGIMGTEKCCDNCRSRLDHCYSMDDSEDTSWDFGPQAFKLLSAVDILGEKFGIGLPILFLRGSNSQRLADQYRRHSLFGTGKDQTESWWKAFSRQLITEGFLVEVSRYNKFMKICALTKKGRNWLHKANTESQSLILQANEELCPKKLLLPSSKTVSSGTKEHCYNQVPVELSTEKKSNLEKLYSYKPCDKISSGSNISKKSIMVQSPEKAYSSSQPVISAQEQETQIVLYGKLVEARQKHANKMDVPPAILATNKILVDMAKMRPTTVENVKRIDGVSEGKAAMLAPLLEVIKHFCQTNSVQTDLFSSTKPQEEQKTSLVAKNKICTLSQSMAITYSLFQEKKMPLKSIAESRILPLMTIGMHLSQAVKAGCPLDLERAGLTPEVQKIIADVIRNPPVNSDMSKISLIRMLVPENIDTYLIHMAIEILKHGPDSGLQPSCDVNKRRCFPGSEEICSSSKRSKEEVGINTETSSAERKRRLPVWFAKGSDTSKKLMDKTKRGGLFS
The test system of test [2] is HT29 cells. Nature of the test: HT29 (MSS) 7 day viability, CellTiter Glo. The test is classed as cell-based. The following applies: Homo sapiens, HT-29, 168 h, 7 days, read-out: HT29 (MSS) Viability 7 Day CTGAbs AC50. The protocol: (§1) Compounds were dissolved in DMSO to a concentration of 10 mM. Compounds were then serially diluted in 10 3-fold steps in DMSO using an EVO (Tecan). Plates were then spun down for 1 minute at 1,000 RPM at room temperature.
(§2) The colon carcinoma lines HCT116 (RRID: CVCL_0291) and HT29 (RRID: CVCL_0320) were obtained from ATCC. […] All cells were maintained at 37° C. with 5% CO2 incubator.
(§3) After harvesting, cells were spun down for 5 minutes at 1200 RPM. Cells were resuspended in 10 mL of growth media and counted using Countess (Thermo Fisher). Cell concentrations were adjusted to 50 cells/well for HCT116 and 500 cells/well for HT29. 50 μL of diluted cells were added to compound treated 384 well plates using a 12 channel, 300 uL electronic handheld pipette (Integra). Cell treated plates were placed in 37 C with 5% CO2 incubator for 7 days.
(§4) Afterwards, cells were removed from incubator and equilibrated to room temperature for 15 minutes. 35 uL of CellTiter Glo (Promega #G7573) reagent were added to each well using a 12 channel, 300 uL electronic handheld pipette (Integra). Plates were incubated for 20 minutes at room temperature. Luminescence quantification was performed using Envision (PerkinElmer).
(§5) For data analysis, the assay background signal was determined in wells containing medium, but no cells. Potencies were calculated by linear least squares fit to the four-parameter logistic IC50 equation. The reported IC50 values are the geometrical mean of at least 2 independent replicates.
(Cellular ATP, detected with luciferase, serves as a proxy for viable cell number.)

The subject of test [3] is HCT116 cells. Nature of the test: HCT116 (MSI) 7 day viability, CellTiter Glo. The test is classed as cell-based. The following applies: Homo sapiens, HCT-116, 168 h, 7 days, read-out: HCT116 (MSI) Viability 7 Day Abs AC50. The protocol: as §1, §2, §3, §4, §5

Molecules are shown by their SMILES.

Take `C=CC(=O)N1CCc2nn(-c3ccc(C(C)C)cc3O)c3c2C(C1)N(C(=O)c1ccc(C(F)(F)F)nc1N)CC3` (stereo not drawn) [Compound 173, 1-(5-(2-amino-6-(trifluoromethyl)nicotinoyl)-2-(2-hydroxy-4-isopropylphenyl)-2,3,4,5,5a,6,8,9-octahydro-7H-1,2,5,7-tetraazabenzo[cd]azulen-7-yl)prop-2-en-1-one]: the AC50 is 0.005 to 0.015 µM in test [1], greater than 3 µM in test [2] and 0.001 to 0.1 µM in test [3].

With `C=CC(=O)N1CCc2nn(-c3ccc(C4CC4)cc3O)c3c2C(C1)N(C(=O)c1cnc(C(F)(F)F)c(O)c1)CC3` (stereo not drawn) [Compound 175, 1-(2-(4-cyclopropyl-2-hydroxyphenyl)-5-(5-hydroxy-6-(trifluoromethyl)nicotinoyl)-2,3,4,5,5a,6,8,9-octahydro-7H-1,2,5,7-tetraazabenzo[cd]azulen-7-yl)prop-2-en-1-one], the AC50 in test [1] is 0.0015 to 0.005 µM; in test [2], greater than 3 µM; in test [3], 0.1 to 0.25 µM.

With `C=CC(=O)N1CCc2nn(-c3ccc(C(C)C)cc3O)c3c2C(C1)N(C(=O)c1cnc(C(F)(F)F)c2[nH]ncc12)CC3` (stereo not drawn) [Compound 176, 1-(2-(2-hydroxy-4-isopropylphenyl)-5-(7-(trifluoromethyl)-1H-pyrazolo[3,4-c]pyridine-4-carbonyl)-2,3,4,5,5a,6,8,9-octahydro-7H-1,2,5,7-tetraazabenzo[cd]azulen-7-yl)prop-2-en-1-one], the AC50 in test [1] was 0.0015 to 0.005 µM; in test [2], greater than 3 µM; in test [3], 0.001 to 0.1 µM.

For `C=CC(=O)N1CCc2nn(-c3ccc(C4CC4)cc3)c3c2C(C1)N(C(=O)c1cnc(OC(F)F)cc1N)CC3` (stereo not drawn) [Compound 177, 1-(5-(4-amino-6-(difluoromethoxy)nicotinoyl)-2-(4-cyclopropylphenyl)-2,3,4,5,5a,6,8,9-octahydro-7H-1,2,5,7-tetraazabenzo[cd]azulen-7-yl)prop-2-en-1-one], the AC50 in test [1] was 0.005 to 0.015 µM; in test [2], greater than 3 µM; in test [3], 0.001 to 0.1 µM.

Regarding `C=CC(=O)N1CCc2nn(-c3ccc(C4CC4)cc3)c3c2C(C1)N(C(=O)c1cnc(C(F)(F)F)cc1NC)CC3` (stereo not drawn) [Compound 179, 1-(2-(4-cyclopropylphenyl)-5-(4-(methylamino)-6-(trifluoromethyl)nicotinoyl)-2,3,4,5,5a,6,8,9-octahydro-7H-1,2,5,7-tetraazabenzo[cd]azulen-7-yl)prop-2-en-1-one], the results for the AC50 in test [1], in test [2] and in test [3] were 0.015 to 0.055 µM, greater than 3 µM and 0.1 to 0.25 µM, respectively.

For the compound `C=CC(=O)N1CCc2nn(-c3ccc(CC(F)(F)F)cc3O)c3c2C(C1)N(C(=O)c1cnc(C(F)(F)F)cc1N)CC3` (stereo not drawn) [Compound 180, 1-(5-(4-amino-6-(trifluoromethyl)nicotinoyl)-2-(2-hydroxy-4-(2,2,2-trifluoroethyl)phenyl)-2,3,4,5,5a,6,8,9-octahydro-7H-1,2,5,7-tetraazabenzo[cd]azulen-7-yl)prop-2-en-1-one], the AC50 in test [1] was 0.015 to 0.055 µM; in test [2], greater than 3 µM; in test [3], 0.001 to 0.1 µM.

With `C=CC(=O)N1CCc2nn(-c3ccc(C4CCC4)cc3)c3c2C(C1)N(C(=O)c1cnc2c(C(F)(F)F)nn(C)c2c1)CC3` (stereo not drawn) [Compound 185, 1-(2-(4-cyclobutylphenyl)-5-(1-methyl-3-(trifluoromethyl)-1H-pyrazolo[4,3-b]pyridine-6-carbonyl)-2,3,4,5,5a,6,8,9-octahydro-7H-1,2,5,7-tetraazabenzo[cd]azulen-7-yl)prop-2-en-1-one], the figures for the AC50 in test [1], in test [2] and in test [3] were 0.015 to 0.055 µM, 1 to 3 µM and 0.001 to 0.1 µM, respectively.

Turning to `C=CC(=O)N1CCc2nn(-c3ccc(C4CC4)cc3)c3c2C(C1)N(C(=O)c1c(N)cc(Br)c2[nH]cnc12)CC3` (stereo not drawn) [Compound 188, 1-(5-(5-amino-7-bromo-1H-benzo[d]imidazole-4-carbonyl)-2-(4-cyclopropylphenyl)-2,3,4,5,5a,6,8,9-octahydro-7H-1,2,5,7-tetraazabenzo[cd]azulen-7-yl)prop-2-en-1-one], the AC50 in test [1] was 0.0015 to 0.005 µM; in test [2] it was greater than 3 µM; in test [3] it was 0.001 to 0.1 µM.

In the case of `C=CC(=O)N1CC(C)c2nn(-c3ccc(C4CC4)cc3O)c3c2C(C1)N(C(=O)c1cnc(Br)cc1N)CC3` (stereo not drawn) [Compound 190, 1-(5-(4-amino-6-bromonicotinoyl)-2-(4-cyclopropyl-2-hydroxyphenyl)-9-methyl-2,3,4,5,5a,6,8,9-octahydro-7H-1,2,5,7-tetraazabenzo[cd]azulen-7-yl)prop-2-en-1-one], the results for the AC50 in test [1], in test [2] and in test [3] were 0.005 to 0.015 µM, greater than 3 µM and 0.001 to 0.1 µM, respectively.

For `C=CC(=O)N1CCc2nn(-c3ccc(C4CC4)cc3O)c3c2C(C1)N(C(=O)c1cnc(Br)cc1N)CC3` (stereo not drawn) [Compound 191, 1-(5-(4-amino-6-bromonicotinoyl)-2-(4-cyclopropyl-2-hydroxyphenyl)-2,3,4,5,5a,6,8,9-octahydro-7H-1,2,5,7-tetraazabenzo[cd]azulen-7-yl)prop-2-en-1-one], the AC50 in test [1] is 0.005 to 0.015 µM; in test [2] it was greater than 3 µM; in test [3], 0.001 to 0.1 µM.

As to `C=CC(=O)N1CCc2nn(-c3ccc(C4CC4)cc3O)c3c2C(C1)N(C(=O)c1cnc(C(F)(F)F)nc1N)CC3` (stereo not drawn) [Compound 197, 1-(5-(4-amino-2-(trifluoromethyl)pyrimidine-5-carbonyl)-2-(4-cyclopropyl-2-hydroxyphenyl)-2,3,4,5,5a,6,8,9-octahydro-7H-1,2,5,7-tetraazabenzo[cd]azulen-7-yl)prop-2-en-1-one], the half-maximal activity concentration (AC50) in test [1] is 0.005 to 0.015 µM; in test [2], greater than 3 µM; in test [3], 0.001 to 0.1 µM.

On to `C=CC(=O)N1CCc2nn(-c3ccc(C4CC4)c(F)c3O)c3c2C(C1)N(C(=O)c1cnc(C(F)(F)F)cc1N)CC3` (stereo not drawn) [Compound 203, 1-(5-(4-amino-6-(trifluoromethyl)nicotinoyl)-2-(4-cyclopropyl-3-fluoro-2-hydroxyphenyl)-2,3,4,5,5a,6,8,9-octahydro-7H-1,2,5,7-tetraazabenzo[cd]azulen-7-yl)prop-2-en-1-one], for which the AC50 in test [1] is 0.005 to 0.015 µM; in test [2], greater than 3 µM; in test [3], 0.001 to 0.1 µM.

In the case of `C=CC(=O)N1CCc2nn(-c3ccc(C4CC4)cc3)c3c2C(C1)N(C(=O)c1cnc(SC)nc1N)CC3` (stereo not drawn) [Compound 204, 1-(5-(4-amino-2-(methylthio)pyrimidine-5-carbonyl)-2-(4-cyclopropylphenyl)-2,3,4,5,5a,6,8,9-octahydro-7H-1,2,5,7-tetraazabenzo[cd]azulen-7-yl)prop-2-en-1-one], the values for the AC50 in test [1], in test [2] and in test [3] were 0.015 to 0.055 µM, greater than 3 µM and 0.001 to 0.1 µM, respectively.

With `C=CC(=O)N1CC(OC2CN(C(C)=O)C2)c2nn(-c3ccc(C4CCC4)cc3)c3c2C(C1)N(C(=O)c1ccc(C(F)(F)F)nc1)CC3` (stereo not drawn) [Compound 205, 1-(9-((1-acetylazetidin-3-yl)oxy)-2-(4-cyclobutylphenyl)-5-(6-(trifluoromethyl)nicotinoyl)-2,3,4,5,5a,6,8,9-octahydro-7H-1,2,5,7-tetraazabenzo[cd]azulen-7-yl)prop-2-en-1-one], the AC50 was 0.005 to 0.015 µM in test [1], greater than 3 µM in test [2] and 0.001 to 0.1 µM in test [3].

For `C=CC(=O)N1CCc2nn(-c3ccc(C4CC4)cc3O)c3c2C(C1)N(C(=O)c1cc(C#N)c(C(F)(F)F)cc1N)CC3` (stereo not drawn) [Compound 207, 5-(7-acryloyl-2-(4-cyclopropyl-2-hydroxyphenyl)-3,4,5,5a,6,7,8,9-octahydro-2H-1,2,5,7-tetraazabenzo[cd]azulene-5-carbonyl)-4-amino-2-(trifluoromethyl) benzonitrile], the values for the concentration at half-maximal activity (AC50) in test [1], in test [2] and in test [3] were 0.005 to 0.015 µM, greater than 3 µM and 0.001 to 0.1 µM, respectively.

`C=CC(=O)N1CCc2nn(-c3ccc(C4CC4)cc3O)c3c2C(C1)N(C(=O)c1cnc(C(F)(F)F)c(C)c1N)CC3` (stereo not drawn) [Compound 208, 1-(5-(4-amino-5-methyl-6-(trifluoromethyl)nicotinoyl)-2-(4-cyclopropyl-2-hydroxyphenyl)-2,3,4,5,5a,6,8,9-octahydro-7H-1,2,5,7-tetraazabenzo[cd]azulen-7-yl)prop-2-en-1-one]: the AC50 is 0.0015 to 0.005 µM in test [1], greater than 3 µM in test [2] and 0.001 to 0.1 µM in test [3].

On to `C=CC(=O)N1CCc2nn(-c3ccc(C4CC4)cc3O)c3c2C(C1)N(C(=O)c1cnc(SC(F)(F)F)cc1N)CC3` (stereo not drawn) [Compound 209, 1-(5-(4-amino-6-((trifluoromethyl)thio)nicotinoyl)-2-(4-cyclopropyl-2-hydroxyphenyl)-2,3,4,5,5a,6,8,9-octahydro-7H-1,2,5,7-tetraazabenzo[cd]azulen-7-yl)prop-2-en-1-one], for which the AC50 in test [1] was 0.0015 to 0.005 µM; in test [2] it was greater than 3 µM; in test [3], 0.001 to 0.1 µM.
